Test results published in publication PMC10310036, “Variability in phenylalanine side chain conformations facilitates broad substrate tolerance of fatty acid binding in cockroach milk proteins” (PLOS ONE, 2023).
Where two headings read alike, the source gives them in different places.

How the values were obtained:
Test in all cases: intrinsic tryptophan fluorescence titration
Lili-Mip1 = target: T1, Lili-Mip1 (Diploptera punctata, UniProt Q6SVB6); format: binding
T1 construct: recombinant, codon-optimised synthetic gene, secreted from S. cerevisiae FGY217 with Ost1 or alpha-factor signal; untagged pYES2 version likely (also made with C-terminal His tag)
T1 sequence (Q6SVB6 entry or part of it): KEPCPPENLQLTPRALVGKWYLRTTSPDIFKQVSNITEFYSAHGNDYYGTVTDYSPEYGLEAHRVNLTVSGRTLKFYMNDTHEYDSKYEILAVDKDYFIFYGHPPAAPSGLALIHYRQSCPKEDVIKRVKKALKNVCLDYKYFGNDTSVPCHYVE
From the text: intrinsic tryptophan fluorescence titration on Lili-Mip1

Lili-Mip2 = target: T2, Lili-Mip2 (Diploptera punctata, UniProt Q6SVB5); format: binding
T2 construct: recombinant, codon-optimised synthetic gene, secreted from S. cerevisiae FGY217 with Ost1 or alpha-factor signal; untagged pYES2 version likely (also made with C-terminal His tag)
T2 sequence (Q6SVB5 entry or part of it): as the sequence (Q6SVB6 entry or part of it) above, with K87E, V125I, A132S, P150H, H152R, V154L counted along it
From the text: intrinsic tryptophan fluorescence titration on Lili-Mip2

Lili-Mip3 = target: T3, Lili-Mip3; format: binding, Diploptera punctata; conditions: 50 mM sodium acetate pH 4.8, 100 mM NaCl, 25°C, delipidated protein
T3 construct: recombinant, codon-optimised synthetic gene, secreted from S. cerevisiae FGY217 with Ost1 or alpha-factor signal; untagged pYES2 version likely (also made with C-terminal His tag)
From the text: intrinsic tryptophan fluorescence titration on Lili-Mip3

[1] = read-out: Palmitoleic acid (16:1)
[2] = read-out: Myristoleic acid (14:1)

CCCCC/C=C\C/C=C\CCCCCCCC(=O)O [Linoleic acid]
Kd (Lili-Mip1; read-out: Linoleic acid (18:2)): 1560 ± 330 nM | Kd (Lili-Mip2; read-out: Linoleic acid (18:2)): 2190 ± 1410 nM | Kd (Lili-Mip3; read-out: Linoleic acid (18:2)): 270 ± 80 nM

CCCCCCCCCCCCCCCC(=O)O [Palmitic acid]
Kd (Lili-Mip1; read-out: Palmitic acid (16:0)): 1760 ± 880 nM | Kd (Lili-Mip2; read-out: Palmitic acid (16:0)): 1410 ± 880 nM | Kd (Lili-Mip3; read-out: Palmitic acid (16:0)): 820 ± 610 nM

CCCCCC/C=C\CCCCCCCC(=O)O [Palmitoleic acid]
Kd (Lili-Mip1; [1]): 1540 ± 910 nM | Kd (Lili-Mip2; [1]): 2300 ± 1320 nM | Kd (Lili-Mip3; [1]): 880 ± 620 nM

CCCCCCCCCCCCCCCCCC(=O)O [Stearic acid]
Kd (Lili-Mip1; read-out: Stearic acid (18:0)): 1710 ± 560 nM | Kd (Lili-Mip2; read-out: Stearic acid (18:0)): 2320 ± 1320 nM | Kd (Lili-Mip3; read-out: Stearic acid (18:0)): 1780 ± 1740 nM

CCCCCCCCCCCCCC(=O)O [Myristic acid]
Kd (Lili-Mip1; read-out: Myristic acid (14:0)): 1960 ± 830 nM | Kd (Lili-Mip3; read-out: Myristic acid (14:0)): 1600 ± 510 nM

CCCCCCCC/C=C\CCCCCCCC(=O)O [Oleic acid]
Kd (Lili-Mip1; read-out: Oleic acid (18:1)): 930 ± 310 nM | Kd (Lili-Mip2; read-out: Oleic acid (18:1)): 1710 ± 1190 nM | Kd (Lili-Mip3; read-out: Oleic acid (18:1)): 240 ± 110 nM

CCCC/C=C\CCCCCCCC(=O)O [Myristoleic acid]
Kd (Lili-Mip1; [2]): 2060 ± 420 nM | Kd (Lili-Mip2; [2]): 2780 ± 500 nM | Kd (Lili-Mip3; [2]): 680 ± 490 nM
